Literature values, collected in article PMC1976805, “Preclinical pharmacokinetics of benznidazole” (British Journal of Cancer, 1984).
Read-outs that look alike come from different tables or passages of the source.

How the values were obtained:
plasma proteins = details: ref Workman, 1980b and 1983; cited from earlier work
[1] = EMT6 flank tumours; ref Workman, 1980b and 1983; cited from earlier work
[2] = humans; ref Workman, 1980b and 1983; cited from earlier work
[3] = spontaneous dog neoplasms; ref Workman, 1980b and 1983; cited from earlier work
[4] = sheep; ref Miller, personal communication; cited from earlier work
[5] = mice; ref Workman, 1980b and 1983; cited from earlier work
[6] = mice; ref Workman, 1980b and 1983; cited from earlier work; remark: listed apart in the source
[7] = ref Workman, 1980b and 1983, cited from earlier work
[8] = large crossbred dogs; ref Workman, 1980b and 1983; cited from earlier work

For COCC(O)Cn1ccnc1[N+](=O)[O-] (centres unmarked) [MISO, 1-(2-nitro-imidazol-1-yl)-3-methoxypropan-2-ol], the “appreciable plasma protein binding” value (plasma proteins) is listed as “does not occur”, the “overall tissue/whole plasma ratio” value [1] is listed as 87% and the “steady-state tumour/whole plasma ratio (about)” value [1] is listed as “about 90%”. The “usual average t1/2” value [2] was 10 to 12 h, the tissue/whole plasma ratio [3] was 61% and the “elimination t1/2” value [4] was 0.667 to 1 h. For the same molecule, the “elimination t1/2” value [5] was 0.333 to 0.667 h, the brain/whole plasma ratio [6] was 90% and the “peripheral nerve/whole plasma ratio” value ([7]; dog) was 82%. The brain/whole plasma ratio ([7]; dogs) was 70% and the “elimination t1/2” value [8] was 4 to 5 h.
